Results as given in the NIST ThermoML archive (doi:10.1021/je2010209).
Numbers after ± are expanded uncertainties.

Experiment: xn = mol fraction of the nth substance listed
Settings: 101 kPa, Liquid; for mass density: Vibrating tube method; for speed of sound: Sing-around technique in a fixed-path interferometer

COCCOCCO [2-(2-methoxyethoxy)ethanol] + CCCCn1cc[n+](C)c1.F[B-](F)(F)F
Settings	mass density, 303.15 K [kg/m3]	mass density, 308.15 K [kg/m3]	mass density, 313.15 K [kg/m3]	mass density, 318.15 K [kg/m3]	speed of sound, 308.15 K [m/s]	speed of sound, 313.15 K [m/s]	speed of sound, 318.15 K [m/s]
x2 = 0	1011.36 ± 0.86	1006.92 ± 0.85	1002.47 ± 0.84	998.009 ± 0.83	1382 ± 5	1366 ± 5	1349 ± 5
x2 = 0.0308	1022.02 ± 0.89	1017.5 ± 0.88	1013.14 ± 0.87	1008.9 ± 0.86	1395 ± 5	1378 ± 5	1362 ± 5
x2 = 0.1053	1046.36 ± 0.93	1042 ± 0.93	1037.68 ± 0.92	1033.44 ± 0.91	1425 ± 5	1409 ± 5	1393 ± 5
x2 = 0.2065	1074.58 ± 0.99	1070.56 ± 0.98	1066.49 ± 0.98	1062 ± 0.97	1453 ± 5	1437 ± 5	1422 ± 5
x2 = 0.3137	1098.6 ± 1	1094.68 ± 1	1090.91 ± 1	1086.38 ± 1	1474 ± 5	1460 ± 5	1447 ± 5
x2 = 0.4002	1114.55 ± 1.1	1110.65 ± 1.1	1107.01 ± 1.1	1102.75 ± 1.1	1490 ± 5	1477 ± 5	1464 ± 5
x2 = 0.5035	1131.18 ± 1.1	1127.3 ± 1.1	1123.64 ± 1.1	1119.79 ± 1.1	1506 ± 5	1493 ± 5	1480 ± 5
x2 = 0.6083	1146.73 ± 1.1	1142.95 ± 1.1	1139.19 ± 1.1	1135.51 ± 1.1	1517 ± 5	1505 ± 5	1494 ± 5
x2 = 0.7023	1160.08 ± 1.2	1156.36 ± 1.2	1152.49 ± 1.2	1148.84 ± 1.2	1526 ± 5	1514 ± 5	1503 ± 5
x2 = 0.8291	1176.92 ± 1.2	1173.24 ± 1.2	1169.38 ± 1.2	1165.68 ± 1.2	1534 ± 5	1523 ± 5	1512 ± 5
x2 = 0.9381	1189.62 ± 1.2	1185.91 ± 1.2	1182.2 ± 1.2	1178.57 ± 1.2	1540 ± 5	1529 ± 5	1519 ± 5
